We go through three molecules from patent US20240423969A1, “SYNERGISTIC DRUG COMBINATIONS TO TREAT CANCER” (Mayo Foundation for Medical Education and Research, priority 2023, published 2024).

The subject of this test is HCC cell lines (HLE, HLF, and PLC/PRF5). The test is described as follows: Cell proliferation assay, three HCC cell lines. Type of test: cell-based. To be noted: Homo sapiens, PLC-PRF-5, single agent, range over HLE, 96 hours, read-out: IC50 (concentration that inhibits proliferation of 50% cells). The procedure: HCC cell lines (3×10^5 cells) were suspended in a 10 mL culture medium and seeded onto 96-well black plates at 100 μL per well (Corning Incorporated, Corning, NY, USA). The next day, SSI-4, cabozantinib, and/or lenvatinib were added in concentrations ranging from 120 μM to 0.1 nM and incubated with cells for 96 hours. After incubation times, the media was discarded, and cells were washed with 100 μL PBS, dried, and placed at −80° C. for at least 30 minutes. Next, a CyQUANT® Cell Proliferation Assay (Thermo Fisher, Waltham, MA) was used for quantifying cells and for assessing cell proliferation and cytotoxicity following manufacturer protocol. For 3D cell culture, the cell viability was analyzed using CellTiter-Glo® 3D Cell Viability Assay (Promega, Madison, WI), and relative luminescence units (RLU) were measured. Based, on the fluorescence or luminescence values, the percentage of cell proliferation inhibition and half-maximal inhibitory concentration (IC50) was determined using the GraphPad Prism (Dotmatics, San Diego, CA). The resulting combination index (CI) data based on the median effect principle proposed by Chou and Talalay was generated using CalcuSyn Software Version 2.0 (Biosoft). At least 3 independent experiments were performed.
Three HCC cell lines (HLE, HLF, and PLC/PRF5) were tested and the concentration that inhibits proliferation of 50% cells (IC50) was determined. […]

Each structure is given as a SMILES string.

In the case of `CNC(=O)c1ccnc(NC(=O)N2CCC(Oc3ccccc3Cl)CC2)c1` [SSI-4, 2-{[4-(2-Chlorophenoxy)piperidine-1-carbonyl]amino}-N-methylpyridine-4-carboxamide], the IC50 fell in the range of 0.001 to 0.019 µM.
Consider `COc1cc2nccc(Oc3ccc(NC(=O)C4(C(=O)Nc5ccc(F)cc5)CC4)cc3)c2cc1OC` [cabozantinib], for which the IC50 lay in the range of 19 to 72 µM.
`COc1cc2nccc(Oc3ccc(NC(=O)NC4CC4)c(Cl)c3)c2cc1C(N)=O` [lenvatinib]: the IC50 was in the range of 11 to 24 µM.
